Assays:
mice = assay: Insulin tolerance test (ITT) and basal blood glucose in mice; type: in vivo, mouse; conditions: for Insulin sensitivity in vivo (ITT): PO 20 and 50 mg/kg in peanut butter, five days
Method: Insulin Tolerance Test (ITT) and Glucose Tolerance Test (GTT) Protocol for FIG. 2C: Groups of age/sex matched mice of Control and ShcKO genotypes were food deprived for four hours and challenged with I.P. injection of insulin, and glucose concentration was determined in blood exactly at indicated time-points. Decrease and recovery of blood glucose was calculated as a % of basal level (the time-point before insulin injection). Basal levels of glucose were measured in triplicate for each mouse. For the GTT, the same groups of mice were fasted during fourteen hours and challenged with glucose injection I.P., analogously the blood glucose concentrations were measured.
In-vivo drugs testing to improve the insulin sensitivity of periphery for FIG. 6D, E: Groups of mice, ten for the experimental drug treatment and 14 for the placebo treatment were subject for I.P. administration of a drug or placebo solutions daily during four days. Acarbose, a known drug which decreases blood glucose concentration was used as a control. The insulin tolerance test, ITT was performed on the mice as described previously, in Example 2.
(§1) Sensogramms were obtained, and response [nm] for each concentration was plotted against log concentration of idebenone. Sigmoidal, variable slope fitting analysis was performed using GraphPad Prism Software (GraphPad Software, Inc., La Jolla, Calif.). […] Cells were stimulated with 0.2 nM insulin for 10 minutes, and Western analyzed for induction of Akt and ERK. Insulin dependent activation of Akt is presented as fold change over vehicle control, and plotted against log concentration of idebenone; tubulin signal was used for normalization between biological samples. Sigmoidal dose-response (variable slope) fitting analysis was performed, EC50, hill slope, and top response were identified, as described above, and are indicated on the graph. p-value was calculated by testing R^2 for significance for N=65. […] Idebenone at indicated dose was given to animals 30 minutes before dark phase for five days. At the day of Insulin Tolerance Test (ITT) additional dose of idebenone was given to animals two hours prior to insulin injection. For ITT, the food was deprived at 7 am (the beginning of light phase), basal glucose was measured at 11 am, and insulin was administrated at 0.8 U/kg dose; blood glucose was recorded and expressed as % of baseline, and plotted against time. […] Software (CambridgeSoft Corporation, Waltham, Mass.), and virtually docked to Shc-PTB using iGEMDOCK software (BioXGEM Lab, National Chiao-Tung University Hsinchu, Taiwan, R.O.C), and, MOL file was generated. Three dimensional structure of PTB domain of Shc was obtained from Protein Data Bank (http://www.rcsb.org/).

Shc-PTB domain = molecular target: T1, Shc-PTB domain (Homo sapiens, UniProt P29353); assay: Octet RED 384 binding to p52Shc protein (p52Shc lacking PTB domain as reference); conditions: for EC50: 10 pM to 100 uM, Octet RED 384
T1 sequence (P29353 1-473 isoform P29353-2): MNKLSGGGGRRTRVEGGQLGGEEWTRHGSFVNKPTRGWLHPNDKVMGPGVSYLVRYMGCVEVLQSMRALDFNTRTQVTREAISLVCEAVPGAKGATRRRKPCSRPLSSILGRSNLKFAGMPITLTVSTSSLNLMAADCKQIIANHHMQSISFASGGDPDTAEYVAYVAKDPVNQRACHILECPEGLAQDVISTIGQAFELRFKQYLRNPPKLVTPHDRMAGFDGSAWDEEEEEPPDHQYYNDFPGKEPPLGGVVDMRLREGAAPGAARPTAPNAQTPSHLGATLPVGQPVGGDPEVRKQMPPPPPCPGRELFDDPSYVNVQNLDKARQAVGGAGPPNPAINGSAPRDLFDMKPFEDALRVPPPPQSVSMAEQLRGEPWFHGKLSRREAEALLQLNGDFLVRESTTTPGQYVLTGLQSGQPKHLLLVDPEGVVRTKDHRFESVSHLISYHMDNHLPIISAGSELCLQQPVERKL
Method: as §1
FIGS. 9A-E illustrate that SrcI-1 binds into PTB domain of Shc protein. […] Sensograms were obtained and shown. […] Sigmoidal, variable slope fitting analysis was performed; EC50, hill slope, and top response were identified, and indicated. p-value was calculated by testing R^2 for significance for N=24; SrcI-1 was binding to Shc-PTB domain with EC50 of 3 μM.
FIGS. 11A-F illustrate details of interaction of idebenone analogs, idebenone and SrcI-1 with Shc protein. […]

FL83B cells = assay: High-throughput in-cell western blot (ICWB) screen for insulin sensitizers, P-Akt over P-ERK; type: cell-based, mouse; conditions: for Score rank in screening assay: 1689 molecules screened
Method: Drugs were screened by in-cell western blot (ICWB) for their ability to stimulate phospho-Akt activation in the presence of trace or 10 nM insulin (FIG. 4A). Cells in wells were treated with drugs, and the activity (phosphorylation) of Akt was determined by a phospho-Akt specific antibody. In FIG. 4A, low insulin was given and drugs a, b, c, stimulated Akt activation. In FIG. 4B, 10 nM insulin was given and a, b, and c stimulated signaling over background, and d and […] inhibited. […] Drugs were primarily screened for their ability to promote insulin-dependent stimulation of (phospho)Akt, then secondarily screened for lack of activity to stimulate (phospho) Erk, or a high Akt/Erk ratio. Such drugs are expected to cause insulin sensitivity, resistance to obesity, and longevity. Some drugs having these desired characteristics are Shc inhibitors.
Primary ICWB was performed as follows: FL83B cells were seeded on 384 well plates, 10,000 cells per well in F-12 media supplemented with 10% FBS and 25 mM glucose; 48 hours later the media was replaced with F-12, 25 mM glucose without FBS for sixteen hours; cells were supplemented with assigned drug at desired concentration for 1 hour in duplicate and then, the cells were stimulated with desired concentration of insulin for ten minutes for Akt activation and fifteen minutes for ERK activation measurements. After that time the media was removed and replaced with fixing solution of 5% Formaldehyde in PBS, pH=7.4, 30 minutes later, the fixing solution was replaced with the permeabilization buffer, 0.1% triton X100 in PBS for 40 minutes. […] After the incubation with the secondary antibodies for one hour at room temperature, the wells were washed again two times with the 0.1% tween-20 in PBS and scanned on the Li-Cor Odyssey infrared scanner; images were analyzed with the Li-Cor Odyssey software. […] Phospho-Akt, Phospho-ERK signals than were normalized by tubulin signals in each well and the densitometric results were analyzed to identify drugs which improved metabolic insulin sensitivity without inducing the mitogenic ERK activation. […]

[1] = system: corticosterone-treated mice; assay: Corticosterone-treated mice: blood glucose and ITT; type: in vivo, mouse
Method: Mice were kept pathogen-free throughout the study. All experimental procedures were approved by the Institutional Animal Care and Use Committee (IACUC) and were performed in compliance with local, state, and federal regulations. Diet was LM-485 (Teklad 7012) with nutrient composition: protein=19.9%, carbohydrates=53.7%, fat=5.7%. The source of lipid was soybean oil, protein-soybean meal, energy source-ground oats. Group of 36 13-month old male and female mice were tested with ITT before the study began and were started on Corticosterone in drinking water at 100 mg/L. Body weight and blood glucose were monitored. FIG. 12A illustrates experimental flow. Mice were started on corticosterone at day 1 and continued on it through the study. At day 13 the group was randomly split 1:1 and half were given idebenone as a mixture with peanut butter daily, another half was given placebo daily for another 5 days. All mice continued receiving corticosterone in drinking water for these 5 days, and then ITT were performed. For insulin tolerance tests mice were fasted for six hours and given intra-peritoneal injection of insulin (0.2 U/kg); then blood glucose was measured in the indicated time course (FIG. 12D). FIG. 12B bars are body weights in grams. […] (FIG. 12D) ITT of Control, CS+placebo, and CS+idebenone groups. […] Error bars are standard deviations. *=p<0.05. […]

[2] = system: insulin-dependent activation of Akt in FL83B mouse liver cells; assay: Western blot of insulin-dependent phospho-Akt activation in FL83B cells; type: cell-based; conditions: for Insulin-dependent P-Akt signaling: Western blot
Source text: (§2) Western blot protocol of phospho-Akt (columns 2-4) and phospho-Erk (columns5-7). As explained above and in Example 4, Western blots of phospho-Akt and phospho-Erk are a more accurate and precise and quantitative measure of Akt phosphorylation than ICWB measurements. Insulin-dependent phospho-Akt is a direct measurement of insulin sensitivity, and we expect that Shc inhibitors will stimulate phospho-Akt more than phospho-Erk. All of the drugs listed in FIG. 5A stimulated insulin-dependent phospho-Akt at some concentration. Method. Mouse liver cells FL83B were plated at density of 400.000 cells per well of 6 well pate and cultivated for 48 hours, media was changed to DMEM, 25 mM glucose serum free and 16 hours later the cells were treated with drug at the indicated concentration for one hour. Control wells were treated with the vehicle (DMSO), in certain control wells the metabolic (Akt) insulin signaling was blocked with wortmannin. The cells were induced with indicated concentration of insulin for 10 minutes, total protein was extracted and the Western Blots were performed with indicated antibody as described above. […]
Sensogramms were obtained, and response [nm] for each concentration was plotted against log concentration of idebenone. […] Cells were stimulated with 0.2 nM insulin for 10 minutes, and Western analyzed for induction of Akt and ERK. […] Sigmoidal dose-response (variable slope) fitting analysis was performed, EC50, hill slope, and top response were identified, as described above, and are indicated on the graph. p-value was calculated by testing R^2 for significance for N=65. […] For ITT, the food was deprived at 7 am (the beginning of light phase), basal glucose was measured at 11 am, and insulin was administrated at 0.8 U/kg dose; blood glucose was recorded and expressed as % of baseline, and plotted against time. […]

phospho-Shc = assay: Western blot of phospho-Shc; type: cell-based
Method: Assays to identify compounds useful for preventing, reducing, delaying or inhibiting symptoms of impaired insulin sensitivity, glucose intolerance or obesity can be performed in vitro. Candidate agents can be contacted with a population of test cells in the presence of insulin (e.g., 1 nM, 5 nM, 10 nM, 100 nM or more). An agent that prevents, reduces, delays or inhibits one or more symptoms of impaired insulin sensitivity, glucose intolerance or obesity increases the ratio of levels of phospho-Akt-1 over phospho-Erk relative to a control ratio. The increase in ratio of levels of phospho-Akt-1 over phospho-Erk can be determined in comparison to a control population of cells that have not been contacted with insulin or have been contacted with a low concentration of insulin (e.g., less than 0.1 nM) or a population of cells contacted with insulin but not with the compound under test. Ratio of levels of phospho-Akt-1 over phospho-Erk can be determined using a Western blot among other methods. Inhibition of Shc activity can be quantitatively measured by assaying the reduction of stimulatory Shc phosphorylation, using a phospho-Shc specific antibody. Inhibition of Shc expression can be measured using a Western blot. […]

[3] = system: Erk activation in FL83B mouse liver cells; assay: Western blot of phospho-Erk activation in FL83B cells; type: cell-based
Source text: as §2

SMILES | Insulin sensitivity in vivo (ITT) (mice) | Insulin sensitivity in vivo (ITT) (mice; listed as Idebenone) | EC50 (Shc-PTB domain; 48 point titration) | P-Akt/P-Erk ratio in primary screen (FL83B cells; ICWB primary screen) | Blood glucose level ([1]; 18th day, corticosterone 100 mg/L in drinking water, idebenone daily 5 days, versus placebo) | Sensitivity to insulin in ITT ([1]; 40, 60, and 90 minutes after insulin 0.2 U/kg, versus corticosterone plus placebo) | EC50 ([2]; Mus musculus, drug 1 hour, 0.2 nM insulin for 10 minutes, 65 points, read-out: EC50 of sensitizing cells to insulin (insulin dependent activation of Akt)) | Insulin-dependent P-Akt signaling [2] | phospho-Shc activation (phospho-Shc) | Basal blood glucose (mice; 2.5 mg/kg I.P. for 4 days) | Insulin sensitivity in-vivo (ITT) (mice; 2.5 mg/kg I.P. for 4 days) | EC50 (Shc-PTB domain; 24 point titration) | Binding to Shc-PTB (Shc-PTB domain; Octet RED 384 sensograms) | Score rank in screening assay (FL83B cells) | Erk activation [3] | P-Akt/P-Erk ratio [3]
COC1=C(OC)C(=O)C(CCCCCCCCCCO)=C(C)C1=O [idebenone] | increased insulin sensitivity in vivo | significantly improving insulin sensitivity in-vivo | 1.2 nM | increased P-Akt/P-Erk ratio | significant decrease comparing to placebo group in blood glucose level | significantly more sensitive to insulin than corticosterone plus placebo | 3.3 nM | increased insulin-dependent phospho-Akt activation in a dose-dependent manner | decreased phospho-Shc in a dose-dependent manner | – | – | – | – | – | – | –
COc1cc2ncnc(Nc3ccc(Oc4ccccc4)cc3)c2cc1OC [SrcI-1] | – | – | – | – | – | – | – | stimulates insulin-dependent P-Akt signaling | inhibited phospho-Shc activation in dose-dependent manner | significantly decreased basal blood glucose | increased insulin sensitivity in-vivo | 3000 nM | binding to Shc-PTB in dose-dependent fashion | scored in the top 35 out of 1689 molecules | decreased Erk activation | increasing the P-Akt/P-Erk ratio
CN(C)C(=N)N=C(N)N [metformin] | – | – | – | – | – | – | – | – | – | – | – | – | – | scored in the top 35 out of 1689 molecules | – | –
